What all share (assay): growth of human tumour cells (NCI), 48 h
Test [1] concerns UACC-257.
In test [2] the test system is CCRF-CEM.
Test [3] relates to CAKI-1.
Test [4] concerns IGROV-1.
Test [5] deals with SK-MEL-5.
The test system of test [6] is Hs-578T.
For test [7], the system named is HCT-116.
The test system of test [8] is MCF7.
Test [9] concerns SW-620.
Test [10] concerns HL-60.
Test [11] has as its system RXF 393.
The test system of test [12] is SR.
The subject of test [13] is HCT-15.
Test [14] relates to SK-MEL-2.
For test [15], the system named is KM12.
The test system of test [16] is COLO 205.
The test system of test [17] is UO-31.
Test [18] concerns PC-3.
Test [19] has as its system T47D.
The test system of test [20] is BT-549.

Structures are written as SMILES.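 96-well plates; 48 h exposure; 5 concentrations. Endpoints by linear interpolation between flanking doses. Not reached: highest tested concentration assigned. At the GI50, growth is halved.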 Calls of active or inactive are those of the source. Rule as the data show it: active = GI50 up to about 1.1 µM and inactive = higher. Where only a bound is given, the exact number is not on record here.

As for `COC(=O)C1=C(OC(=O)/C(=C/c2ccc(Cl)cc2)c2ccc(Cl)cc2)C(C(=O)OC)[C@@]2(O)[C@@H](C(=O)OC)[C@H](C)C[C@@H]1[C@@H]2C(=O)OC` (some centres not stated), the GI50 in test [1] is > 83.6 µM (inactive); in test [2], > 37.2 µM (inactive); in test [3], > 100 µM (inactive); in test [4], 27.6 µM (inactive); in [5], > 100 µM (inactive); in [6], 39.4 µM (inactive). In addition, the GI50 was 31.6 µM (inactive) in test [7]; 58.6 µM (inactive) in test [8]; 78.2 µM (inactive) in test [9]; > 100 µM (inactive) in test [10]; > 61.4 µM (inactive) in test [11]; > 63.2 µM (inactive) in [12]. The GI50 in test [13] is greater than 81.3 µM; in test [14] it was > 92.7 µM (inactive); in test [15], 11 µM (inactive); in test [16], > 76.4 µM (inactive); in test [17], > 100 µM (inactive); in [18] it was 12.6 µM (inactive). For the same compound, the GI50 in test [19] is > 74 µM (inactive).
With `COC1(C(C)(C)C)C=C(C(C)(C)C)P(=O)(O)O1` (configuration not stated), the GI50 in test [1], in test [3], in test [4], in test [5], in test [6] and in [7] was > 100 µM (inactive) in each case. Moreover, the GI50 in test [8] is > 100 µM (inactive); in test [9] it was > 100 µM (inactive); in test [10], > 100 µM (inactive); in test [12], > 100 µM (inactive); in test [13], greater than 100 µM; in [14], > 100 µM (inactive). For the same compound, the GI50 in [15] was > 100 µM (inactive); in test [16] it was > 100 µM (inactive); in test [18], > 100 µM (inactive); in test [19] it was 1.36 µM (inactive).
For `COc1ccc(/C(=N\Nc2ccccn2)c2ccccn2)cc1`, the GI50 is < 0.01 µM (active) in test [1]; < 0.01 µM (active) in test [2]; < 0.01 µM (active) in [3]; 0.0167 µM (active) in test [4]; 0.0303 µM (active) in [5]; 0.818 µM (active) in test [20]. Besides, the GI50 in test [6] was 0.625 µM (active); in test [7], < 0.01 µM (active); in [8], < 0.01 µM (active); in test [9] it was < 0.01 µM (active); in [10], < 0.01 µM (active); in test [11], 2.59 µM (inactive). The GI50 is 0.0547 µM (active) in test [12]; 0.0103 µM in [13]; 3.37 µM (inactive) in [14]; 0.16 µM (active) in test [15]; < 0.01 µM (active) in test [16]; 0.0405 µM (active) in test [17]. The GI50 in test [18] was 0.0306 µM (active).
For the compound `Cn1c(=O)oc2cc(Br)ccc21`, the GI50 in test [1], in test [2], in test [3], in test [4], in test [5] and in test [6] was > 100 µM (inactive) each time. Also, the GI50 in [7], in test [8], in test [9], in test [10], in [11] and in test [12] was > 100 µM (inactive) in each case. Further, the GI50 was greater than 100 µM in [13]; > 100 µM (inactive) in test [14]; > 100 µM (inactive) in test [15]; > 100 µM (inactive) in [16]; > 100 µM (inactive) in [17]; > 100 µM (inactive) in test [18]. Besides, in test [19], the GI50 is > 100 µM (inactive).
For `CCOC(=O)C1C(=O)CC(O)(OCC)C(C(=O)OCC)C1c1ccc(OC)cc1` (configuration not stated), the GI50 in [1], in test [2], in [3], in test [4], in [5] and in test [20] was > 100 µM (inactive) in each case. Besides, the GI50 in [7], in test [8], in [9], in [10], in test [11] and in test [12] was > 100 µM (inactive) in each case. In addition, the GI50 in [13] was greater than 100 µM; in [14] it was > 100 µM (inactive); in test [15], > 100 µM (inactive); in test [16], > 100 µM (inactive); in [17], > 100 µM (inactive); in test [18] it was > 100 µM (inactive). Also, the GI50 in test [19] is > 100 µM (inactive).
`COc1cc([N+](=O)[O-])c(S(=O)(=O)O)cc1-n1nc(C(=O)Nc2ccccc2)n[n+]1-c1cc(S(=O)(=O)[O-])c([N+](=O)[O-])cc1OC`: the GI50 in test [1], in test [2], in [3], in test [4], in [5] and in [20] was > 100 µM (inactive) in each case. Also, the GI50 in [6], in test [7], in test [8], in test [9], in test [10] and in [12] was > 100 µM (inactive) in each case. The GI50 in test [13] was 45.4 µM; in [14] it was > 100 µM (inactive); in test [15], > 100 µM (inactive); in test [16], > 100 µM (inactive); in [17], > 100 µM (inactive); in [18], > 100 µM (inactive).
For the compound `CC(=O)C1C(=O)C(=O)N(c2ccc([N+](=O)[O-])cc2[N+](=O)[O-])C1=O` (configuration not stated), the GI50 in test [1], in test [2], in test [3], in test [4], in [5] and in test [20] was > 100 µM (inactive) throughout. The GI50 in [6] was > 100 µM (inactive); in test [7], > 100 µM (inactive); in [8], > 100 µM (inactive); in [9], > 100 µM (inactive); in test [10] it was > 100 µM (inactive); in test [11], 1.96 µM (inactive). Besides, the GI50 in test [13] is greater than 100 µM; in test [14], > 100 µM (inactive); in [15], > 100 µM (inactive); in test [16], > 100 µM (inactive); in test [17], 59.3 µM (inactive); in test [18] it was > 100 µM (inactive).
Turning to `Nc1ccc2c(c1)Cc1ccccc1-2`, the GI50 is > 100 µM (inactive) in test [1]; 23.6 µM (inactive) in test [2]; 88.3 µM (inactive) in test [3]; 89.9 µM (inactive) in test [4]; 66.2 µM (inactive) in test [5]; 48.2 µM (inactive) in [20]. In addition, the GI50 in test [6] was > 100 µM (inactive); in test [7], 81.5 µM (inactive); in test [8], > 100 µM (inactive); in [9] it was > 100 µM (inactive); in test [10], 36.6 µM (inactive); in test [11] it was 48.1 µM (inactive). Further, the GI50 is 52.5 µM (inactive) in test [12]; 62.2 µM in test [13]; 99.8 µM (inactive) in test [14]; 41.5 µM (inactive) in [15]; > 100 µM (inactive) in test [16]; 19.5 µM (inactive) in test [17]. The GI50 in test [18] is 64.9 µM (inactive).

(Values after ChEMBL document CHEMBL1201862, “PubChem BioAssay data set” (2004).)
